≈ marks a conversion by molar mass, not a printed value.
What was measured:
[1] = biological target: T1, 17-beta-hydroxysteroid dehydrogenase type 1 (Homo sapiens, UniProt P14061); experiment: Inhibition of human 17beta-HSD1 expressed in human T47D cells using [3H]E1 as substrate incubated for 1 hr followed by substrate addition measured after 40 mins in presence of E1 by HPLC analysis; assay type: cell-based
T1 sequence (P14061 whole entry): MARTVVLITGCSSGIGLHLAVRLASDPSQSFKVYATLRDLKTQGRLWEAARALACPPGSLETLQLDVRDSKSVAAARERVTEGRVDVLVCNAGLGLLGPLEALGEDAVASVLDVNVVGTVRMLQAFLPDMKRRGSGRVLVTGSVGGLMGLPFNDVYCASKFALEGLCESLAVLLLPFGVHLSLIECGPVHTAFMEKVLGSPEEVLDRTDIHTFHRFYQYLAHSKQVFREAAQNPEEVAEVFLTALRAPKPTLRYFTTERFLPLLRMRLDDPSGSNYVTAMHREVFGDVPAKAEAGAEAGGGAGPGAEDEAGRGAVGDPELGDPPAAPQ

Steryl-sulfatase [2] = biological target: T2, Steryl-sulfatase (Homo sapiens, UniProt P08842); experiment: Inhibition of human STS expressed in human T47D cells using [3H]E1S as substrate incubated for 1 hr followed by substrate addition measured after 24 hrs in presence of E1S by HPLC analysis; assay type: cell-based
T2 sequence (P08842 whole entry): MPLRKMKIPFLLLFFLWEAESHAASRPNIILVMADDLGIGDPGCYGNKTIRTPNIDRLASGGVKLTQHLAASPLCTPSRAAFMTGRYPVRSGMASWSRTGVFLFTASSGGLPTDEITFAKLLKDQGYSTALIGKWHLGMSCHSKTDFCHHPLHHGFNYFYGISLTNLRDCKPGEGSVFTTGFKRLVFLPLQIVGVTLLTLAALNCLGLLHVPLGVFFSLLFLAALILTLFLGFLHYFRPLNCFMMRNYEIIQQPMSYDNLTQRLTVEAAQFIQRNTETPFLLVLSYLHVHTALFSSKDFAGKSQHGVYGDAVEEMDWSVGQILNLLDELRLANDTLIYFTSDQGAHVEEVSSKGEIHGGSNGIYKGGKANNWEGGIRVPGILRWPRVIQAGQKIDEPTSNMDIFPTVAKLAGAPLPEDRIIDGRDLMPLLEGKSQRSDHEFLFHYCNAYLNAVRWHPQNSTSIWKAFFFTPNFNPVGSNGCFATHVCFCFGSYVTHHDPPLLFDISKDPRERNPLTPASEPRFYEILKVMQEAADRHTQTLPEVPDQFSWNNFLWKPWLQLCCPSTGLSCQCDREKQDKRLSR

Homo sapiens [3] = organism: Homo sapiens; experiment: Selectivity ratio of IC50 for human placental microsomal fraction 17beta-HSD2 to IC50 for human placental microsomal fraction 17beta-HSD1
[4] = biological target: T1, 17-beta-hydroxysteroid dehydrogenase type 1; experiment: Inhibition of human placental cytosolic fraction 17beta-HSD1 using [3H]E1 as substrate measured after 10 mins in presence of NADH by HPLC analysis; assay type: tissue-based, Placenta
[5] = biological target: T3, 17-beta-hydroxysteroid dehydrogenase type 2 (Homo sapiens, UniProt P37059); experiment: Inhibition of human placental microsomal fraction 17beta-HSD2 using [3H]E2 as substrate measured after 20 mins in presence of NAD+ by HPLC analysis; assay type: microsomes, Placenta, Microsome
T3 sequence (P37059 whole entry): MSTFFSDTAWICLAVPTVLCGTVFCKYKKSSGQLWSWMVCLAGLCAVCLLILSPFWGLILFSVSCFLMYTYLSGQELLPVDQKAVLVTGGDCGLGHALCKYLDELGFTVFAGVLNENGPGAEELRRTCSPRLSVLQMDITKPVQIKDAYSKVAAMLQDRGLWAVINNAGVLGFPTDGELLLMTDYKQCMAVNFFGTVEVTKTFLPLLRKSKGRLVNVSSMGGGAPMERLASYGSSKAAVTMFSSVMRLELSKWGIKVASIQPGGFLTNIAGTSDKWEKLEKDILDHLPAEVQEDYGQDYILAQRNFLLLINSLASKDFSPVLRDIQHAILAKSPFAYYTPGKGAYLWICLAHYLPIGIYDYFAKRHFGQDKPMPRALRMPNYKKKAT

[6] = biological target: T4, Steryl-sulfatase (Homo sapiens) (UniProt P08842); experiment: Inhibition of human STS expressed in human T47D cells at 1 uM using [3H]E1S as substrate incubated for 1 hr followed by substrate addition measured after 24 hrs in presence of E1S by HPLC analysis relative to control; assay type: cell-based; details: time 25.0 hrs
T4 sequence (whole entry): T2 sequence (P08842 whole entry)

[7] = Metabolic stability in human liver S9 fraction assessed as half life measured upto 60 mins in presence of NADPH by LC-MS/MS analysis; assay type: ADME, subcellular; details: for half-life: liver S9 fraction
[8] = Metabolic stability in human liver S9 fraction assessed as intrinsic clearance measured upto 60 mins in presence of NADPH by LC-MS/MS analysis; assay type: ADME, subcellular; details: read-out: CLH
Homo sapiens [9] = organism: Homo sapiens; experiment: Selectivity ratio of IC50 for human 17beta-HSD2 to IC50 for human 17beta-HSD1
[10] = Metabolic stability in mouse liver S9 fraction assessed as half life measured upto 60 mins in presence of NADPH by LC-MS/MS analysis; assay type: ADME, subcellular; details: for half-life: liver S9 fraction
Steryl-sulfatase [11] = biological target: T2, Steryl-sulfatase; experiment: Irreversible inhibition of human STS expressed in human T47D cells using [3H]E1S as substrate preincubated for 2 hr followed by substrate addition measured after 24 hrs in presence of E1S by HPLC analysis; assay type: cell-based
HEK293 = experiment: Cytotoxicity against HEK293 cells assessed as cell growth inhibition by measuring lethal concentration measured after 72 hrs by MTT assay; assay type: functional, Homo sapiens
[12] = Aqueous solubility of compound in PBS measured after 1 to 24 hrs; assay type: physicochemical; details: time 1-24 hrs
[13] = AUC(0 to 24 hrs) in C57BL/6 mouse at 50 mg/kg, sc administered as single dose measured after 24 hrs by HPLC-MS/MS analysis; assay type: ADME, organism-based; parameters: time 24 hrs, dose 50 mg/kg, route sc; details: in vivo
[14] = biological target: T5, Aryl hydrocarbon receptor (Homo sapiens, UniProt P35869); experiment: Activation of AhR in human HepG2 cells assessed as increase in CYP1A1 activity at 3.16 uM measured after 48 hrs by fluorescence based analysis; assay type: cell-based; details: hepg2, 48 h
T5 sequence (P35869 whole entry): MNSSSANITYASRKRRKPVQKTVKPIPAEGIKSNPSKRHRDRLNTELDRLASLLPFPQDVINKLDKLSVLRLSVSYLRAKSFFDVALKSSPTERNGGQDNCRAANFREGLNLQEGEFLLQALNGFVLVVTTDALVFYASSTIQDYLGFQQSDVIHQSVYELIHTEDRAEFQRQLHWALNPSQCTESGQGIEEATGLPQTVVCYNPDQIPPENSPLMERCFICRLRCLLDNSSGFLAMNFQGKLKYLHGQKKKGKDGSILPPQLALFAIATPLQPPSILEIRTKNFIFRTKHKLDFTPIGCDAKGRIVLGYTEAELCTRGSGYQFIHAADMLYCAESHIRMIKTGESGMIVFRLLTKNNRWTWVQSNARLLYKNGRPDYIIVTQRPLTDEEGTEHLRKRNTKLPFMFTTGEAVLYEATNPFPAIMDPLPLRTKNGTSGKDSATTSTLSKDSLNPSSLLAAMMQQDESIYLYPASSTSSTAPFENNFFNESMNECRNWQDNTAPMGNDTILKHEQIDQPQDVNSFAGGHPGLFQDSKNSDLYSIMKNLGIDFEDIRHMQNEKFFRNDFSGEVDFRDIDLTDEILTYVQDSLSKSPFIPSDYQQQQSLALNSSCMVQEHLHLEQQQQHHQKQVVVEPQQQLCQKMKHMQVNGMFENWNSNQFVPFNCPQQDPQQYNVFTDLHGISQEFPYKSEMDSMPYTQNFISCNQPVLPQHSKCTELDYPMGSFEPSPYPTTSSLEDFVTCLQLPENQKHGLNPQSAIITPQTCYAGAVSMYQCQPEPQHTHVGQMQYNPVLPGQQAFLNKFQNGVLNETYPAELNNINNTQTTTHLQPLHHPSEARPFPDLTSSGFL

HepG2 = experiment: Cytotoxicity against human HepG2 cells assessed as cell growth inhibition by measuring lethal concentration measured after 48 hrs by MTT assay; assay type: functional
[15] = Lipophilicity, logD of compound at pH 7.4; assay type: physicochemical; details: buffer
[16] = Half life in C57BL/6 mouse at 50 mg/kg, sc administered as single dose measured after 24 hrs by HPLC-MS/MS analysis; assay type: ADME, organism-based; details: in vivo
[17] = Observed Cmax in C57BL/6 mouse at 50 mg/kg, sc administered as single dose measured upto 24 hrs by HPLC-MS/MS analysis; assay type: ADME, organism-based; parameters: time < 24 hrs, dose 50 mg/kg, route sc; details: in vivo
[18] = Drug concentration in C57BL/6 mouse at 50 mg/kg, sc administered as single dose measured after 24 hrs by HPLC-MS/MS analysis; assay type: ADME, organism-based; details: in vivo, read-out: Drug uptake

SMILES	IC50 [1]	IC50 (Steryl-sulfatase [2])	Ratio IC50 (Homo sapiens [3])	IC50 [4]	IC50 [5]	half-life [7]	microsomal CLint [8]	half-life [10]	also measured
Cc1cc(-c2ccc(C(=O)N(C)c3ccc(OS(N)(=O)=O)c(F)c3)o2)cc(C)c1O	140 nM	83 nM	6	500 nM	3200 nM	–	–	–	–
Cc1cc(-c2ccc(C(=O)N(C)c3ccc(OS(N)(=O)=O)c(Cl)c3)o2)cc(C)c1O	88 nM	38 nM	6	400 nM	2400 nM	–	–	–	–
Cc1ccccc1N(C)C(=O)c1ccc(-c2cc(C)c(O)c(C)c2)o1	2.9 nM	–	570	–	–	38 min	18.2 µL/min/mg	19 min	inhibition [6]: < 10%; t1/2 ([7]; s9, 1 h, 1 h): 38.1 min; Ratio IC50 (Homo sapiens [9]): 563; t1/2 ([10]; s9, 1 h, 1 h): 19.1 min
Cc1ccc(OS(N)(=O)=O)cc1N(C)C(=O)c1ccc(-c2cc(C)c(O)c(C)c2)o1	3.2 nM	450 nM	275	16 nM	4400 nM	19.3 min	35.9 µL/min/mg	28.5 min	IC50 (Steryl-sulfatase [11]): 460 nM; LC20 (HEK293): <=38 uM; solubility [12]: 20 µM (≈ 8.61 µg/mL); AUC(0-t) at 24 h [13]: 1900 ng·h/mL; Activity [14]: Not Active; LC20 (HepG2): 28000 nM; logD [15]: 2.68; half-life [16]: 129 min; Cmax [17]: 517 nM; concentration at 24 h [18]: 49 nM
O=C(c1ccc(-c2ccc(O)cc2)s1)c1c(F)ccc(O)c1F	–	–	–	–	–	< 5 min	–	–	Ratio IC50 (Homo sapiens [9]): 24
NS(=O)(=O)Oc1ccc(-c2ccc(C(=O)c3c(F)ccc(O)c3F)s2)cc1Cl	–	15 nM	33	–	–	< 5 min	–	< 5 min	Ratio IC50 (Homo sapiens [9]): 36
Cc1cc(-c2ccc(C(=O)N(C)c3cccc(OS(N)(=O)=O)c3C)o2)cc(C)c1O	58 nM	–	–	–	–	–	–	–	inhibition [6]: < 10%
Cc1cc(-c2ccc(C(=O)N(C)c3ccc(OS(N)(=O)=O)cc3)o2)cc(C)c1O	110 nM	150 nM	18	430 nM	7700 nM	–	–	–	–
C[C@]12CC[C@H]3[C@@H](CCC4=CC(=O)CC[C@@]43C)[C@@H]1CC[C@@H]2O [TESTOSTERONE]	–	–	–	–	–	–	74.5 µL/min/mg	–	–
O=c1ccc2ccc(O)cc2o1 [UMBELLIFERONE]	–	–	–	–	–	–	139 µL/min/mg	–	–
Cc1cc(-c2ccc(C(=O)N(C)c3c(C)cccc3OS(N)(=O)=O)o2)cc(C)c1O	140 nM	–	–	–	–	–	–	–	inhibition [6]: < 10%; Activity [14]: Not Active
Cc1cc(-c2ccc(C(=O)N(C)c3cccc(OS(N)(=O)=O)c3)o2)cc(C)c1O	80 nM	92 nM	36	180 nM	6400 nM	–	–	–	–
Cc1cc(OS(N)(=O)=O)c(Cl)cc1N(C)C(=O)c1ccc(-c2cc(C)c(O)c(C)c2)o1	53 nM	76 nM	110	68 nM	7500 nM	35.6 min	19.4 µL/min/mg	22.5 min	IC50 (Steryl-sulfatase [11]): 79 nM; LC20 (HEK293): <=27 uM; solubility [12]: 20 µM (≈ 9.3 µg/mL); AUC(0-t) at 24 h [13]: 1900 ng·h/mL; LC20 (HepG2): 31000 nM; logD [15]: 2.75; half-life [16]: 169 min; Cmax [17]: 400 nM; concentration at 24 h [18]: 62 nM

Reference: ChEMBL document CHEMBL5331123, “Potent Dual Inhibitors of Steroid Sulfatase and 17β-Hydroxysteroid Dehydrogenase Type 1 with a Suitable Pharmacokinetic Profile for In Vivo Proof-of-Principle Studies in an Endometriosis Mouse Model” (J Med Chem, 2023)
